# According to paper PMC4076210, “Discovery of Novel AKT Inhibitors with Enhanced Anti-Tumor Effects in Combination with the MEK Inhibitor” (PLoS ONE, 2014):
# Read-outs that look alike come from different tables or passages of the source.
# Tests used:
# Assay type in all cases: biochemical
# [1] = biological target: RSK1 (Homo sapiens, UniProt Q15418); test: Kinase IC50 assay
# [2] = biological target: T1, cKit(h) (Homo sapiens, UniProt P10721); test: Kinase panel
# T1 construct: purchased Millipore KinaseProfiler
# [3] = biological target: T2, Itk(h) (Homo sapiens, UniProt Q08881); test: Kinase panel
# T2 construct: purchased Millipore KinaseProfiler
# T2 sequence (Q08881 1-620): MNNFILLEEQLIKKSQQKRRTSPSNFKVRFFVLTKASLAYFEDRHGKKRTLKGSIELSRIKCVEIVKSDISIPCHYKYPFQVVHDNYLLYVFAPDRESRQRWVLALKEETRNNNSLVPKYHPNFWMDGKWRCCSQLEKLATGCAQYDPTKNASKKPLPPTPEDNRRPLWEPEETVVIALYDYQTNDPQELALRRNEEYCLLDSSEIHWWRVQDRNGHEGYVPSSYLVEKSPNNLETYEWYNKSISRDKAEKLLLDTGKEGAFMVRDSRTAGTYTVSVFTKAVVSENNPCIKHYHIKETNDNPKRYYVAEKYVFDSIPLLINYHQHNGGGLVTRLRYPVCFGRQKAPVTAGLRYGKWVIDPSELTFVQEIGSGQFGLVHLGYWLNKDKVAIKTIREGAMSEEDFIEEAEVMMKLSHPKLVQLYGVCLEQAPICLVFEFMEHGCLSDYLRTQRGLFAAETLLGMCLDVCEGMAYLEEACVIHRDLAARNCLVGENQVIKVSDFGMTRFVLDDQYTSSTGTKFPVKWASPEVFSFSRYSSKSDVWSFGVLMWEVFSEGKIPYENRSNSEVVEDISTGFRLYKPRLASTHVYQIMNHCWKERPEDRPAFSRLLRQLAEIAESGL
# [4] = biological target: T3, Plk1(h) (Homo sapiens, UniProt P53350); test: Kinase panel
# T3 construct: purchased Millipore KinaseProfiler
# [5] = biological target: T4, Blk(m) (Mus musculus, UniProt P16277); test: Kinase panel
# T4 construct: purchased Millipore KinaseProfiler
# [6] = biological target: T5, FGFR2(N549H)(h) (Homo sapiens, UniProt P21802, N549H); test: Kinase panel
# T5 construct: purchased Millipore KinaseProfiler
# [7] = biological target: T6, SAPK2a(h) (Homo sapiens, UniProt Q16539); test: Kinase panel
# T6 construct: purchased Millipore KinaseProfiler
# [8] = biological target: T7, Abl (Q252H) (h) (Homo sapiens, UniProt P00519, Q252H); test: Kinase panel
# T7 construct: purchased Millipore KinaseProfiler
# [9] = biological target: T8, Tie2(h) (Homo sapiens, UniProt Q02763); test: Kinase panel
# T8 construct: purchased Millipore KinaseProfiler
# [10] = biological target: T9, EphA5(h) (Homo sapiens, UniProt P54756); test: Kinase panel
# T9 construct: purchased Millipore KinaseProfiler
# [11] = biological target: T10, Fgr(h) (Homo sapiens, UniProt P09769); test: Kinase panel
# T10 construct: purchased Millipore KinaseProfiler
# [12] = biological target: T11, Abl(m) (Mus musculus, UniProt P00520); test: Kinase panel
# T11 construct: purchased Millipore KinaseProfiler
# [13] = biological target: T12, CDK2/cyclinE(h) (Homo sapiens, UniProt P24941); test: Kinase panel
# T12 construct: purchased Millipore KinaseProfiler
# [14] = biological target: T13, PKCζ(h) (Homo sapiens, UniProt Q05513); test: Kinase panel
# T13 construct: purchased Millipore KinaseProfiler
# T13 sequence (Q05513 1-592): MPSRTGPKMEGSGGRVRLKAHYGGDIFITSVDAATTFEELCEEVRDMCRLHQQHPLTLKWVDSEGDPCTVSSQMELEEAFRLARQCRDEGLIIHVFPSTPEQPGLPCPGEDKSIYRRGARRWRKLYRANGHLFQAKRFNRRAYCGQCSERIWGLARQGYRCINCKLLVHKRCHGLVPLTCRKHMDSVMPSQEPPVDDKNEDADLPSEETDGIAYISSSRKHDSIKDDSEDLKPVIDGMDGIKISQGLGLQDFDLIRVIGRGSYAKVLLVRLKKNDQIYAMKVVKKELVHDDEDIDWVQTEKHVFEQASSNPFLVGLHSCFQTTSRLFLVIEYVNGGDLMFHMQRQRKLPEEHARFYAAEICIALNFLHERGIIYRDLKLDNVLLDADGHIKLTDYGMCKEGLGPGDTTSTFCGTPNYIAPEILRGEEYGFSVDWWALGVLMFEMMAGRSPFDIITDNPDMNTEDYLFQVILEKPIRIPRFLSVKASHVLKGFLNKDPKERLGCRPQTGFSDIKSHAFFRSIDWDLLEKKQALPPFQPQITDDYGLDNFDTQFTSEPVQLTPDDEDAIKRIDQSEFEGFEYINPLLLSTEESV
# [15] = biological target: T14, PAK2(h) (Homo sapiens, UniProt Q13177); test: Kinase panel
# T14 construct: purchased Millipore KinaseProfiler
# [16] = biological target: T15, PDGFRα(D842V)(h) (Homo sapiens, UniProt P16234, D842V); test: Kinase panel
# T15 construct: purchased Millipore KinaseProfiler
# T9 sequence (P54756 25-1037): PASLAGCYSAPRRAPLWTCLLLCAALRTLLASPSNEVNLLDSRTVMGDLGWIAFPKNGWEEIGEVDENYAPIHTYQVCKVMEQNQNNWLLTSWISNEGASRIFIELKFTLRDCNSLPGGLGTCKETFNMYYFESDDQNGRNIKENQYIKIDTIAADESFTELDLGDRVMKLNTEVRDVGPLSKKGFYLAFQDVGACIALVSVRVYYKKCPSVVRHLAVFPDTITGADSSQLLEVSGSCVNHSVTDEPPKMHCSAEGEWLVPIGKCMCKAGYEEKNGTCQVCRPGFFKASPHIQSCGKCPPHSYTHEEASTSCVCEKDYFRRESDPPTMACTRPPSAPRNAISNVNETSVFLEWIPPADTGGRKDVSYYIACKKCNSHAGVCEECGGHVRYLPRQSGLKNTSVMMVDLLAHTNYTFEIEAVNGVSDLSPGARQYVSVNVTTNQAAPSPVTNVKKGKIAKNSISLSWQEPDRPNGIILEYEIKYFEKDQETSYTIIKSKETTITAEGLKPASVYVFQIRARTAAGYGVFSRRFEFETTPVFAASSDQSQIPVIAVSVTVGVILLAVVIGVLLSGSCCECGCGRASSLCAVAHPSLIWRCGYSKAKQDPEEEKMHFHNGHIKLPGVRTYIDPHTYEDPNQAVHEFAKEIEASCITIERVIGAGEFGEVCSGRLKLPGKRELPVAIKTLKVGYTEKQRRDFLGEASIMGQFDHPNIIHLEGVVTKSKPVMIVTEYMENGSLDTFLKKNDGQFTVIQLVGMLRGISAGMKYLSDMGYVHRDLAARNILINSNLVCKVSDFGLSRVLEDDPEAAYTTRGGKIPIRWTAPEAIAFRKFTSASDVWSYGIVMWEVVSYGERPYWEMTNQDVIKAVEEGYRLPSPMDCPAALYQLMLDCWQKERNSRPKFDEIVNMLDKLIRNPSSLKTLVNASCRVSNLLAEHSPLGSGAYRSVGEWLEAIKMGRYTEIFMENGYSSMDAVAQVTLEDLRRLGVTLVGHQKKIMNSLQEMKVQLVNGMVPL
# T11 sequence (P00520 27-1123 limits assumed): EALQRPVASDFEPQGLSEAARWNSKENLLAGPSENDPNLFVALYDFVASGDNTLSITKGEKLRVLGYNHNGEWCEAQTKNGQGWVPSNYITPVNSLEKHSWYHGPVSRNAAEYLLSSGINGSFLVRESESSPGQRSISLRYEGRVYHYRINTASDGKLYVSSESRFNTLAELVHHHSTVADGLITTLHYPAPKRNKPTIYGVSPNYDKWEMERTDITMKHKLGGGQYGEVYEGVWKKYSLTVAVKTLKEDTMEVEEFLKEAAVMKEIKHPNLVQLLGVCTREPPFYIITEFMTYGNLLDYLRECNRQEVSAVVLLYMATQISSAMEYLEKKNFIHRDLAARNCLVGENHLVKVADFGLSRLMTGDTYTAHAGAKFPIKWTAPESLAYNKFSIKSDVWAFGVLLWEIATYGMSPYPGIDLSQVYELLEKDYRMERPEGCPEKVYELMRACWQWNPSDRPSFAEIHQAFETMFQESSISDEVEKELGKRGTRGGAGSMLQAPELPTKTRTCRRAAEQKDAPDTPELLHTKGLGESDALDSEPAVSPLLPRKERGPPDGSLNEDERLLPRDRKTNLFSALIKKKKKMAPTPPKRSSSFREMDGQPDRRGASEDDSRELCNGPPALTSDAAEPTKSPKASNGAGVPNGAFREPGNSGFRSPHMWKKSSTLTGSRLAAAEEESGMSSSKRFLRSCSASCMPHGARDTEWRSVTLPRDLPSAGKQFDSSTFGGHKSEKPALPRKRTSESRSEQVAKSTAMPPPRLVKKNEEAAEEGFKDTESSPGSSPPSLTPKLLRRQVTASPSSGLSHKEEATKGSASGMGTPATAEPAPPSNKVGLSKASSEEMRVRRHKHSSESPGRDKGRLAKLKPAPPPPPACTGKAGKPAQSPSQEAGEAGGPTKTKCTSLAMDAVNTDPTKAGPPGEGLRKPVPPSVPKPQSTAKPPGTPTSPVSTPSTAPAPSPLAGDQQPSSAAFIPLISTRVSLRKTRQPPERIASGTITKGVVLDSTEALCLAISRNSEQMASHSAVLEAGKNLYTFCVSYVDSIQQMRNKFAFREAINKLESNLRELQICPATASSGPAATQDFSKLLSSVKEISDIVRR
# T4 sequence (P16277 2-499 limits assumed): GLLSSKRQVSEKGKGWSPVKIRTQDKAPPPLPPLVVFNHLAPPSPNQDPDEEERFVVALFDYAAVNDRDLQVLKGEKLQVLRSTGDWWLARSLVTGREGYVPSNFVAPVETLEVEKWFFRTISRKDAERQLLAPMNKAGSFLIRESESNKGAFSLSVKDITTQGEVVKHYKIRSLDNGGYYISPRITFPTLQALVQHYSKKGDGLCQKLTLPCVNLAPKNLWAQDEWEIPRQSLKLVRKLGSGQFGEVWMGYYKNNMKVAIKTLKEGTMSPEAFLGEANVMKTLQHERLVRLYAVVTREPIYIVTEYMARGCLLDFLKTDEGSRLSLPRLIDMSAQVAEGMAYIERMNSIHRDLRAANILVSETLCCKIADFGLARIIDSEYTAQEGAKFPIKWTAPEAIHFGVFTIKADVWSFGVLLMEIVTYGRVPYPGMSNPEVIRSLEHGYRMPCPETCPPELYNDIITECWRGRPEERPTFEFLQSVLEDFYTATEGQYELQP
# T1 sequence (P10721 26-976): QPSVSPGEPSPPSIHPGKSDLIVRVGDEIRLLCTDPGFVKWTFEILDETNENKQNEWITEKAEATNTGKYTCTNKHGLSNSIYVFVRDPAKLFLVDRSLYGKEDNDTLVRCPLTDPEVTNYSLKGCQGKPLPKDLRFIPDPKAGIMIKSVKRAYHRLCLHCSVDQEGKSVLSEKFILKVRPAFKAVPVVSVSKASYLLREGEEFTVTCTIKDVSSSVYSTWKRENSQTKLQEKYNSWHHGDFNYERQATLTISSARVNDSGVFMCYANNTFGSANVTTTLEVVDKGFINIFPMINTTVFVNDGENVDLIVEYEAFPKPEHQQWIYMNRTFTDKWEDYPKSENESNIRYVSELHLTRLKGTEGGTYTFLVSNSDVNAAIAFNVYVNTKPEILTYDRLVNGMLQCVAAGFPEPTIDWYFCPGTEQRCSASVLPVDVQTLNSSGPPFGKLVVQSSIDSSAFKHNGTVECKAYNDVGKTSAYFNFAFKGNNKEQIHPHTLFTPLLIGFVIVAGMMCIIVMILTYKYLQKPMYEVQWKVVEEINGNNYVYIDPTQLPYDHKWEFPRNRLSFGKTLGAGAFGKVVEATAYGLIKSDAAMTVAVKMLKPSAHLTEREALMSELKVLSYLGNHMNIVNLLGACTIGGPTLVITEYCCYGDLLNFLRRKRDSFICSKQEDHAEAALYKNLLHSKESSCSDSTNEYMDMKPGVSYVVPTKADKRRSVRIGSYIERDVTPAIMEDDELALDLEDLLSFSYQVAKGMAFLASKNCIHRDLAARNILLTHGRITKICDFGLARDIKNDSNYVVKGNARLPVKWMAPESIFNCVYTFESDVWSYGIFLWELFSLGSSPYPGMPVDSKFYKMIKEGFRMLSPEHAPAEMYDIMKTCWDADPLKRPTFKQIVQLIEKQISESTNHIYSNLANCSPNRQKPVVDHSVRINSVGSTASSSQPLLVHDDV
# T10 sequence (P09769 whole entry): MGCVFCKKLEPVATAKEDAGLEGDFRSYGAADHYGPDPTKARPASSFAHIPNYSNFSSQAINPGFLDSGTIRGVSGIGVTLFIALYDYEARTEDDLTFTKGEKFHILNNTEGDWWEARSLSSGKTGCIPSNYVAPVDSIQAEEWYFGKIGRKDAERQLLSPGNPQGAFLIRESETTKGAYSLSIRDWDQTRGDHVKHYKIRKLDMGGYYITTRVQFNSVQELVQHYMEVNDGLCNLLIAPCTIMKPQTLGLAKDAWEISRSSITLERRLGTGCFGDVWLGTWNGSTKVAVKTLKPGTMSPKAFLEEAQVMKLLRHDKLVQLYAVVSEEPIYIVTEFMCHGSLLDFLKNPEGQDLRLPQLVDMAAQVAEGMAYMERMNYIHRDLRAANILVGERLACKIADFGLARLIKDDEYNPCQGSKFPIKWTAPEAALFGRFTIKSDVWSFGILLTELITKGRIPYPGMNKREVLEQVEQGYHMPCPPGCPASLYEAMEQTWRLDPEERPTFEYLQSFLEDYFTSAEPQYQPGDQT
# T6 sequence (Q16539 whole entry): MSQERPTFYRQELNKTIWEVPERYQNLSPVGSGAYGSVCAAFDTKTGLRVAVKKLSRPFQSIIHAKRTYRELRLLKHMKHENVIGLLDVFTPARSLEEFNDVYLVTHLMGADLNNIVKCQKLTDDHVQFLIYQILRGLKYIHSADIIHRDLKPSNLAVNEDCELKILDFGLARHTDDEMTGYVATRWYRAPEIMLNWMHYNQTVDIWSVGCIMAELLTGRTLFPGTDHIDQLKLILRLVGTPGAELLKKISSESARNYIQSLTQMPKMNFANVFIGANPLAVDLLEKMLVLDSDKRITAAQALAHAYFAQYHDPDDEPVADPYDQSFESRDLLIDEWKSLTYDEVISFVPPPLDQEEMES
# T3 sequence (P53350 whole entry): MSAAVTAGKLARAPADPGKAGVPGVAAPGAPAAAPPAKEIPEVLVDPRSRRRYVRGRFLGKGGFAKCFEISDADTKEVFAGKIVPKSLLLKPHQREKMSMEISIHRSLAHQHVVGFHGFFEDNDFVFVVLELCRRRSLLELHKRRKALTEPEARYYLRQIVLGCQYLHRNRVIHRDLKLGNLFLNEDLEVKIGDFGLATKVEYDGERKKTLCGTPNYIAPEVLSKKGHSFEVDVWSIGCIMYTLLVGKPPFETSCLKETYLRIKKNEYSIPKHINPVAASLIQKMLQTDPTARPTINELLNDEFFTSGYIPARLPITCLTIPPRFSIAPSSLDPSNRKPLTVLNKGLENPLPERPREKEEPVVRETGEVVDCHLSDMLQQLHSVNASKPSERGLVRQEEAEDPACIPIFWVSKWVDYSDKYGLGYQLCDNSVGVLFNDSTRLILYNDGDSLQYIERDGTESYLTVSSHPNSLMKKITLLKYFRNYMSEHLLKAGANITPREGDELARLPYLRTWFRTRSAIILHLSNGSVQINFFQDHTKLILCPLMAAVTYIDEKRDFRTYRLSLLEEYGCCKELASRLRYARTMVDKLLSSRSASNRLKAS
smiles,measurement,setting,value
Cn1ncc(Cl)c1-c1cc(C(=O)N[C@H](CN)Cc2cccc(F)c2)sc1Cl [GSK2110183],IC50,[1],316 nM
same,inhibition at 0.5 µM,[2],13%
same,inhibition at 10 µM,[2],8%
same,inhibition at 0.5 µM,[3],0%
same,inhibition at 10 µM,[3],2%
same,inhibition at 0.5 µM,[4],-21%
same,inhibition at 10 µM,[4],-6%
same,inhibition at 0.5 µM,[5],-12%
same,inhibition at 10 µM,[5],9%
same,inhibition at 0.5 µM,[6],-1%
same,inhibition at 10 µM,[6],-1%
same,inhibition at 0.5 µM,[7],-13%
same,inhibition at 10 µM,[7],-8%
same,inhibition at 0.5 µM,[8],6%
same,inhibition at 10 µM,[8],11%
same,inhibition at 0.5 µM,[9],-56%
same,inhibition at 10 µM,[9],-10%
same,inhibition at 0.5 µM,[10],5%
same,inhibition at 10 µM,[10],9%
same,inhibition at 0.5 µM,[11],3%
same,inhibition at 10 µM,[11],45%
same,inhibition at 0.5 µM,[12],8%
same,inhibition at 10 µM,[12],-5%
same,inhibition at 0.5 µM,[13],3%
same,inhibition at 10 µM,[13],12%
same,inhibition at 0.5 µM,[14],-4%
same,inhibition at 10 µM,[14],37%
same,inhibition at 0.5 µM,[15],-2%
same,inhibition at 10 µM,[15],23%
same,inhibition at 0.5 µM,[16],-16%
same,inhibition at 10 µM,[16],-4%
Cn1ncc(Cl)c1-c1cc(C(=O)N[C@H](CN)Cc2ccc(F)c(F)c2)oc1Cl [GSK2141795],IC50,[1],200 nM
same,inhibition at 0.5 µM,"[2]; 0.5 µM, read-out: % Inhibition",0%
same,inhibition at 10 µM,"[2]; 10 µM, read-out: % Inhibition",-1%
same,inhibition at 0.5 µM,"[3]; 0.5 µM, read-out: % Inhibition",-15%
same,inhibition at 10 µM,"[3]; 10 µM, read-out: % Inhibition",-7%
same,inhibition at 0.5 µM,"[4]; 0.5 µM, read-out: % Inhibition",-34%
same,inhibition at 10 µM,"[4]; 10 µM, read-out: % Inhibition",8%
same,inhibition at 0.5 µM,"[5]; 0.5 µM, read-out: % Inhibition",-35%
same,inhibition at 10 µM,"[5]; 10 µM, read-out: % Inhibition",8%
same,inhibition at 0.5 µM,"[6]; 0.5 µM, read-out: % Inhibition",-2%
same,inhibition at 10 µM,"[6]; 10 µM, read-out: % Inhibition",-5%
same,inhibition at 0.5 µM,"[7]; 0.5 µM, read-out: % Inhibition",-7%
same,inhibition at 10 µM,"[7]; 10 µM, read-out: % Inhibition",-3%
same,inhibition at 0.5 µM,"[8]; 0.5 µM, read-out: % Inhibition",-1%
same,inhibition at 10 µM,"[8]; 10 µM, read-out: % Inhibition",3%
same,inhibition at 0.5 µM,"[9]; 0.5 µM, read-out: % Inhibition",-6%
same,inhibition at 10 µM,"[9]; 10 µM, read-out: % Inhibition",9%
same,inhibition at 0.5 µM,"[10]; 0.5 µM, read-out: % Inhibition",-6%
same,inhibition at 10 µM,"[10]; 10 µM, read-out: % Inhibition",10%
same,inhibition at 0.5 µM,"[11]; 0.5 µM, read-out: % Inhibition",2%
same,inhibition at 10 µM,"[11]; 10 µM, read-out: % Inhibition",68%
same,inhibition at 0.5 µM,"[12]; 0.5 µM, read-out: % Inhibition",1%
same,inhibition at 10 µM,"[12]; 10 µM, read-out: % Inhibition",7%
same,inhibition at 0.5 µM,"[13]; 0.5 µM, read-out: % Inhibition",-2%
same,inhibition at 10 µM,"[13]; 10 µM, read-out: % Inhibition",29%
same,inhibition at 0.5 µM,"[14]; 0.5 µM, read-out: % Inhibition",5%
same,inhibition at 10 µM,"[14]; 10 µM, read-out: % Inhibition",74%
same,inhibition at 0.5 µM,"[15]; 0.5 µM, read-out: % Inhibition",22%
same,inhibition at 10 µM,"[15]; 10 µM, read-out: % Inhibition",25%
same,inhibition at 0.5 µM,"[16]; 0.5 µM, read-out: % Inhibition",-5%
same,inhibition at 10 µM,"[16]; 10 µM, read-out: % Inhibition",15%
